Test results: US12251422B2, “Compositions and methods for treating neurological and other disorders” (Rush University Medical Center, priority 2018, dated 2025)

Columns and labels:
cTLR2 protein = target: T1, cTLR2 protein (Mus musculus, UniProt Q9QUN7); assay: Thermal shift assay of cTLR2 with TIDM peptides; format: binding; conditions: 10 μM peptide
T1 construct: The cTLR2 (640-784 amino acids) tagged with c-myc was cloned in lenti vector; made in house; host or cells: HEK293 cells (lentiviral expression)
T1 sequence (Q9QUN7 640-784): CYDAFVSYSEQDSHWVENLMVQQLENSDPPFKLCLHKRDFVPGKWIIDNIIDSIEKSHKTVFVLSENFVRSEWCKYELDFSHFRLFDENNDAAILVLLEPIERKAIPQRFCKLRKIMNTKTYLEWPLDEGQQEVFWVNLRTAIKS
Method: Thermal shift assays were performed in an Applied Biosystems 7500 standard real-time thermal cycler machine as described before (52, 53). For each reaction, purified protein (0.5 μg to 1 μg) was added to 18 μL of thermal shift buffer provided with the kit, and 1-2 μL of dye. Reaction was set 96 well PCR plate in the dark and then placed in the thermal cycler machine using the following two-stage program [(25° C. for 2 mins) 1 cycle; ([…]) 70 cycles; auto increment 1° C. for both stages]. The filter was set at ROX with no quencher filter and no passive filter.

[1] = target: T2, C-terminal TIR domain of TLR2 protein (cTLR2) (Mus musculus, UniProt Q9QUN7); assay: Surface plasmon resonance binding of TIDM peptides to cTLR2
T2 construct: The cTLR2 (640-784 amino acids) tagged with c-myc was cloned in lenti vector; made in house; host or cells: HEK293 cells (lentiviral expression)
T2 sequence (Q9QUN7 640-784): as above
Method: TLR2 full-length construct (pLenti-cmyc-DDK/tlr2) was purchased from Origene. The cTLR2 (640-784 amino acids) tagged with c-myc was cloned in lenti vector using TOPO TA cloning kit (K5310-00; Life technologies). Briefly, a kozak sequence was incorporated in the upstream of C-terminal TIR domain of TLR2. Next, cTLR2 was cloned in lentivector followed by packaging in lentivirus using HEK293FT cells. After 48 h, media was collected and concentrated with Lenti-X Concentrator (Cat #631231; Clontech). This concentrated lentiviral sup was used for viral transduction. The cTLR2 protein was isolated from HEK293 cell lysate by passing through Myc affinity column. Purified protein was desalted and concentrated by using 10 kD molecular cut-off filtration system.
To analyze the binding of TLR2 with TIDM peptides, surface plasmon resonance (SPR) experiments were carried out using a Reichert 4SPR instrument (Reichert Technologies, Buffalo, NY). Binding assay was performed using a 500 kDa Carboxymethyl Dextran Gold Sensor Slide (Reichert Inc.) for capturing TLR2. Protein immobilization was at a flow rate of 30 μl/min in PBS for 3 min with 0.8 mg/mL solution of TLR2. For analyte association, different concentrations of wtTIDM and mTIDM peptides in PBS running buffer were injected for 2.5 min at a rate of 30 μl/min followed by a dissociation phase of 3 min. The sensor surface was regenerated after each dissociation cycle by allowing buffer to flow at 40 μl/min for a minimum of 15 min. Signals obtained for the TLR2-bound surface were subtracted by signals obtained for the reference cell according to standard procedure using the system software. The concentration dependence of the subtracted signal was analyzed to determine binding affinity of TLR2 with wtTIDM and mTIDM peptides.

EAE mice = assay: Experimental allergic encephalomyelitis (EAE) in C57/BL6 mice; format: in vivo, mouse; conditions: 0.1 mg/kg body wt/d intranasal from 10 dpi
Description: FIG. 7 (A-V). The wtTIDM, but not mTIDM, peptide protects mice from experimental allergic encephalomyelitis (EAE) and collagen-induced arthritis (CIA). […] Mice (n=6 per group in two independent experiments) were scored daily. […] On 22 dpi, general motor activities were monitored using the Ethovision XT 13.0 Open Field Activity System (Noldus) (B, heat-map images representing overall motor activities; C, distance travelled; D, rearing; E, velocity; F, acceleration) and rotorod (G). Foot print analysis (H, stride length; I, print length; J, sway length; K, toe spread) was also performed, L) CIA was induced in male DBA/1J mice by bovine type II collagen immunization and from 29 dpi, mice were treated with wtTIDM and mTIDM peptides (1 mg/kg body wt/d) via i.p. injection. Mice (n=6 per group in two independent experiments) were scored daily. […] On 60 dpi, general motor activities were monitored by Ethovision System (M, heat-map images representing overall motor activities; N, distance travelled; O, rearing; P, velocity), rotorod (Q) and grip strength (R). Foot print analysis (S, stride length; T, print length; U, sway length; V, toe spread) was also performed. Six mice (n=6 per group) were used in two independent experiments. ap<0.001 & bp<0.05 vs control; cp<0.001 & dp<0.05 vs EAE or CIA by two-sample t-tests.
FIG. 25 (A-D). Footprint analysis of EAE mice after treatment with wtTIDM and mTIDM peptides. On the walking track, we applied white paper strips and obtained the footprints of mice of different groups (A, control; B, EAE; C, EAE+wtTIDM; D, EAE+mTIDM) on paper using black ink. A total of 30-40 steps for each group were determined. Four different footprint measurements, viz., stride length (SL), print length (PL), sway length (SWL), and toe spread (TS) were calculated in centimeters from the recorded prints of mice. While SL refers the distance between the front edge of two consecutive prints of the same paw, SWL refers the distance between the paws perpendicular to the distance of travel and PL indicates the measurement of length of print area. […]

Row | Compound | shift (ΔTm) of melting temperature of cTLR2 (cTLR2 protein) [°C] | Kd [1] [µM] | clinical symptoms of EAE (EAE mice) | affinity for cTLR2 stronger than mTIDM ([1]; ratio of Kd values) | locomotor activities and footprints in EAE mice (EAE mice; 22 dpi)
1 | CC[C@H](C)[C@H](NC(=O)[C@H](CCCCN)NC(=O)[C@@H](NC(=O)[C@H](CCC(N)=O)NC(=O)[C@H](CCCNC(=N)N)NC(=O)[C@@H](N)CC(=O)O)[C@@H](C)CC)C(=O)N[C@@H](Cc1c[nH]c2ccccc12)C(=O)N[C@@H](Cc1ccccc1)C(=O)N[C@@H](CCC(N)=O)C(=O)N[C@@H](CC(N)=O)C(=O)N[C@@H](CCCNC(=N)N)C(=O)N[C@@H](CCCNC(=N)N)C(=O)N[C@@H](CCSC)C(=O)N[C@@H](CCCCN)C(=O)N[C@@H](Cc1c[nH]c2ccccc12)C(=O)N[C@@H](CCCCN)C(=O)N[C@@H](CCCCN)C(=O)N1CCC[C@H]1C(=O)NCC(=O)N[C@@H](Cc1c[nH]c2ccccc12)C(=O)N[C@@H](Cc1c[nH]cn1)C(=O)N[C@@H](CCC(N)=O)C(=O)N[C@@H](CC(=O)O)C(=O)O [mTIDM, drqikiwfqnrrmkwkkPGWHQD] | 0.87 | 19 | had no effect |  | 
2 | CC[C@H](C)[C@H](NC(=O)[C@H](CCCCN)NC(=O)[C@@H](NC(=O)[C@H](CCC(N)=O)NC(=O)[C@H](CCCNC(=N)N)NC(=O)[C@@H](N)CC(=O)O)[C@@H](C)CC)C(=O)N[C@@H](Cc1c[nH]c2ccccc12)C(=O)N[C@@H](Cc1ccccc1)C(=O)N[C@@H](CCC(N)=O)C(=O)N[C@@H](CC(N)=O)C(=O)N[C@@H](CCCNC(=N)N)C(=O)N[C@@H](CCCNC(=N)N)C(=O)N[C@@H](CCSC)C(=O)N[C@@H](CCCCN)C(=O)N[C@@H](Cc1c[nH]c2ccccc12)C(=O)N[C@@H](CCCCN)C(=O)N[C@@H](CCCCN)C(=O)N1CCC[C@H]1C(=O)NCC(=O)N[C@@H](C)C(=O)N[C@@H](Cc1c[nH]cn1)C(=O)N[C@@H](CCC(N)=O)C(=O)N[C@@H](CCCCN)C(=O)O [wtTIDM, drqikiwfqnrrmkwkkPGAHQK] | 4.96 | 8 | strongly inhibited | approximately 2.5 times | improved
